Results on three compounds are retold here after patent US20260174671A1, “COMPOSITION FOR ALLEVIATING OR PREVENTING SYMPTOMS OF ALLERGIC RHINITIS OR ALLERGIC CONJUNCTIVITIS” (Nissui Corporation, priority 2022, published 2026).

Assay [1] deals with adult males and females who had experienced nasal and/or eye discomfort due to pollen. Description: Severity classification of allergic rhinitis symptoms, placebo-controlled intake test during the pollen season. Type of assay: in vivo, human. The text has this:
The severity classification of allergic rhinitis symptoms refers to a method of classifying the severity based on Practical Guideline for the Management of Allergic Rhinitis in Japan 2020 (Committee of the Practical Guideline for the Management of Allergic Rhinitis). Specifically, each evening, the subject himself/herself selects the one that best describes the severity of the day on the subjective symptoms on each item listed in the table below.
The subjects were adult males and females who had experienced nasal and/or eye discomfort due to pollen for the past 2 years.
The remaining 36 subjects were randomized and divided into a DGLA administration group (intervention group; hereinafter referred to as DGLA group) with 18 subjects and a placebo administration group (control group; hereinafter referred to as placebo group) with 18 subjects. 3 subjects in the placebo group became untraceable during the testing. Therefore, the analysis was performed on 18 subjects in the DGLA group and 15 subjects in the placebo group.
The DGLA group: DGLA-containing oil (DGLA of 31.4% by weight) was taken at 1,000 mg/day for 15 weeks. The DGLA of 314 mg/day is to be taken in terms of free fatty acid. The DGLA-containing oil was obtained by the method described in Japanese Patent No. 3354581. Specifically, to 200 g of dry cells of a filamentous fungus (Mortierella alpina), 500 mL of hexane was added, the mixture was stirred, and the filtration was repeated three times to extract oil, and then the hexane layer was evaporated to obtain DGLA-containing oil. The subjects took 4 capsules filled with this oil per day.
The intake duration of the diet for testing was 15 weeks from January 8th to Apr. 23, 2022. […]
(§1) The mean±SD of the change in score from the start of the testing was calculated for each group at each time point, and statistical analysis was conducted. […]

Assay [2] has the same test system. In words: Japanese Allergic Rhinitis Standard Quality of Life Questionnaire (JRQLQ), placebo-controlled intake test during the pollen season. Format: in vivo, human.
Description: The JRQLQ is a questionnaire created by Okuda et al. to assess the impact of allergic rhinitis on quality of life (QOL) (Minoru Okuda et al.: Japanese Rhino-conjunctivitis Quality-of-Life Questionnaire (2002 edition), Committee of the Japanese Rhino-conjunctivitis Quality-of-Life Questionnaire, Allergy 2003; 52:21-56). […] In the JRQLQ, the subject himself/herself selects the one that best describes the severity of the worst nasal and eye symptoms the subject has experienced in the past 1-2 weeks on the items listed in the table below.
Also, as shown in Examples to be described later, the composition of the present invention can reduce the scores of nasal and eye symptoms in the JRQLQ, in particular, or suppress the increase of the score, compared to the placebo group. In the present invention, the phrase the “score of nasal and eye symptoms in the JRQLQ” means the sum of the scores of runny nose, sneezing, blocked nose, itchy nose, itchy eyes, and watery eyes in the JRQLQ. In a preferred embodiment of the present invention, the composition of the present invention can be used for reducing the scores of nasal and eye symptoms in the JRQLQ, or suppressing the increase of the score, compared to the placebo group. […]
as §1

Another assay concerns dermatitis model animals. The following applies: intake of DGLA; PTL 2; cited from earlier work.
The test system of assay [3] is atopic dermatitis model mice. The following applies: PTL 4, cited from earlier work.
Assay [4] concerns splenocytes from the model mice. The following applies: PTL 4; cited from earlier work.

For `CCCCCC=CCC=CCC=CCCCCCCC(=O)O` [DGLA, 8,11,14-eicosatrienoic acid], the “sneezing attack score in the severity classification of allergic rhinitis symptoms, change from the start of testing (week 0)” value in assay [1] (DGLA group (n=18) vs placebo group (n=15), DGLA-containing oil 1,000 mg/day (DGLA 314 mg/day) oral, 15 weeks, p<0.01, FIG. 1) was “significantly reduced”. Besides, the “nasal congestion score in the severity classification of allergic rhinitis symptoms, change from the start of testing (week 0)” value in assay [1] (DGLA group (n=18) vs placebo group (n=15), DGLA-containing oil 1,000 mg/day (DGLA 314 mg/day) oral, 15 weeks, p<0.05, FIG. 2) is recorded as “significantly reduced”. Further, the “stratification analysis of the DGLA group, severity classification items (sneezing attack, nasal discharge, nasal congestion, itchy eyes, tearing)” value in assay [1] (Group H (score 1 or higher at week 0) vs Group L (score 0), no significant difference, P=0.249-0.712, FIGS. 4 to 8) is “all the mean values for the items of Group H were lower than those of Group L”. Besides, in assay [2] (DGLA group (n=18) vs placebo group (n=15), DGLA-containing oil 1,000 mg/day (DGLA 314 mg/day) oral, 15 weeks, p<0.1, FIG. 3), the “JRQLQ nasal and eye symptom score (sum of runny nose, sneezing, blocked nose, itchy nose, itchy eyes, watery eyes), change from week 0” value was “tended to be reduced”. Also, the “stratification analysis of the DGLA group, JRQLQ items (runny nose, sneezing, blocked nose, itchy nose, itchy eyes, watery eyes)” value in assay [2] (Group H (score 1 or higher at week 0) vs Group L (score 0), no significant difference, P=0.084-0.59, FIGS. 9 to 14) was “all the mean values for the items of Group H were lower than those of Group L”. Besides, in the assay on dermatitis model animals, the dermatitis entry is recorded as “suppresses dermatitis”.

As for `CCCCC/C=C\C/C=C\C/C=C\CCCCC(=O)O` [GLA, γ-linolenic acid], the IgE production entry in assay [3] (orally administered for two months, atopic dermatitis-affected mice with hyper IgE-emia) was “suppression of IgE production was not observed”. In assay [4], the “IgE production in vitro” value was “suppressed IgE production”.

`CCCCC/C=C\C/C=C\C/C=C\CCCCC(=O)OCC` [γ-linolenic acid (GLA) ethyl ester]: in assay [3] (oral administration, atopic dermatitis model mice), the “hyper IgE production” value is recorded as “suppressed hyper IgE production”.
